Source: publication PMC11167047 (Cell Death Discovery, 2024)

Assays:
Test in all cases: kinome screen (33PanQinase)
Format in all cases: biochemical
SIK3 = molecular target: T1, SIK3 (Homo sapiens, UniProt Q9Y2K2)
T1 construct: purchased Reaction Biology Europe GmbH (formerly ProQinase)
Protocol: (§1) The Kinome Screening was performed by Reaction Biology Europe GmbH (http://reactionbiology.com; Freiburg i. Br., Germany).

MAPKAPK5 = molecular target: T2, MAPKAPK5 (Homo sapiens, UniProt Q8IW41)
T2 construct: purchased Reaction Biology Europe GmbH (formerly ProQinase)
Protocol: as §1

CDK4/CycD1 = molecular target: T3, CDK4/CycD1 (Homo sapiens, UniProt P11802)
T3 construct: purchased Reaction Biology Europe GmbH (formerly ProQinase)
Protocol: as §1

PKCα = molecular target: T4, PKCα (Homo sapiens, UniProt P17252)
T4 construct: purchased Reaction Biology Europe GmbH (formerly ProQinase)
Protocol: as §1

MST3 = molecular target: T5, MST3 (Homo sapiens, UniProt Q9Y6E0)
T5 construct: purchased Reaction Biology Europe GmbH (formerly ProQinase)
Protocol: as §1

RPS6KA2 = molecular target: T6, RPS6KA2 (Homo sapiens, UniProt Q15349)
T6 construct: purchased Reaction Biology Europe GmbH (formerly ProQinase)
Protocol: as §1

TXK = molecular target: T7, TXK (Homo sapiens, UniProt P42681)
T7 construct: purchased Reaction Biology Europe GmbH (formerly ProQinase)
T7 sequence (P42681 1-527): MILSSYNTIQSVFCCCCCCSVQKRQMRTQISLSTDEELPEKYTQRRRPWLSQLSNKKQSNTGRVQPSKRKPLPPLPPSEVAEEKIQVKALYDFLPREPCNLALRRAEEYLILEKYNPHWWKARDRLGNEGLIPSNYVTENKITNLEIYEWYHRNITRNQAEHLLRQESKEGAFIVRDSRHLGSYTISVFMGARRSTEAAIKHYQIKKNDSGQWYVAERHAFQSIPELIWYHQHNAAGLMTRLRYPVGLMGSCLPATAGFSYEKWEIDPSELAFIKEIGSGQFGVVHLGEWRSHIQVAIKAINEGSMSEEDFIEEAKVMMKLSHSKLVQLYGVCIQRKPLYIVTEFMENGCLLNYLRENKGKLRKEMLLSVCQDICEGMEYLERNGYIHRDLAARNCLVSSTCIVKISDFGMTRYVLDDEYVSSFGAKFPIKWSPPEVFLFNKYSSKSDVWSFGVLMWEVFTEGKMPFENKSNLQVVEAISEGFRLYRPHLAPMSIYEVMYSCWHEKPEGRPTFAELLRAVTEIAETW
Protocol: as §1

TRKB = molecular target: T8, TRKB (Homo sapiens, UniProt Q16620)
T8 construct: purchased Reaction Biology Europe GmbH (formerly ProQinase)
Protocol: as §1

PRKX = molecular target: T9, PRKX (Homo sapiens, UniProt P51817)
T9 construct: purchased Reaction Biology Europe GmbH (formerly ProQinase)
T9 sequence (P51817 1-358): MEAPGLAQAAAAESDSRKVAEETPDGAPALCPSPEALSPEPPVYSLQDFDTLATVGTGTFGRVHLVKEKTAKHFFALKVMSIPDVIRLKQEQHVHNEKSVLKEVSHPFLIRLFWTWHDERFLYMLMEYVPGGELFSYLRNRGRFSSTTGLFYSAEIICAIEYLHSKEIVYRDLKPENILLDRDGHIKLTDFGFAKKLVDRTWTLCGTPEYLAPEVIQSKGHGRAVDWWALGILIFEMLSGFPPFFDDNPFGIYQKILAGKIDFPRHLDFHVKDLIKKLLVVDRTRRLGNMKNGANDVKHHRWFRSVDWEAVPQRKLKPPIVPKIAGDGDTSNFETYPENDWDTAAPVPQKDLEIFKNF
Protocol: as §1

ROS = molecular target: T10, ROS (Homo sapiens, UniProt P08922)
T10 construct: purchased Reaction Biology Europe GmbH (formerly ProQinase)
Protocol: as §1

MARK4 = molecular target: T11, MARK4 (Homo sapiens, UniProt Q96L34)
T11 construct: purchased Reaction Biology Europe GmbH (formerly ProQinase)
T11 sequence (Q96L34 1-752): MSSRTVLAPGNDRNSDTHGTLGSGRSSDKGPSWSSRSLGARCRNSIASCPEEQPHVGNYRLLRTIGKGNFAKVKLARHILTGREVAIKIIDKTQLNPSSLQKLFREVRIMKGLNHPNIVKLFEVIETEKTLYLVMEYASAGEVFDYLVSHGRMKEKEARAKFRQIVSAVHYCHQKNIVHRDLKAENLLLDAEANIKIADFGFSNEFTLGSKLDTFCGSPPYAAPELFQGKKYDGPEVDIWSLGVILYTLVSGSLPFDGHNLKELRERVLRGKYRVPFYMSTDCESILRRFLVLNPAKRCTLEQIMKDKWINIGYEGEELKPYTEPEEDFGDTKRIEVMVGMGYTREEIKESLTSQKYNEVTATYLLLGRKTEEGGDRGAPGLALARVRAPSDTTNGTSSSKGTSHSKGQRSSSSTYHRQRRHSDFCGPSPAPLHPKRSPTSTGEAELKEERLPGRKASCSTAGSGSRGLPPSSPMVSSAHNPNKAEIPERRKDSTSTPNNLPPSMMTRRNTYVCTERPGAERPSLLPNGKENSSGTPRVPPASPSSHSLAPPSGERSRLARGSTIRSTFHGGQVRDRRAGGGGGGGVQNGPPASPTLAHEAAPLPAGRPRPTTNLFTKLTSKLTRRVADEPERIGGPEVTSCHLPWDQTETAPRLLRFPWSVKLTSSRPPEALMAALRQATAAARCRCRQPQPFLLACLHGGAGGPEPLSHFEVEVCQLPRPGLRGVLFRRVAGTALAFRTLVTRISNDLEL
Protocol: as §1

SGK1 = molecular target: T12, SGK1 (Homo sapiens, UniProt O00141)
T12 construct: purchased Reaction Biology Europe GmbH (formerly ProQinase)
T12 sequence (O00141 1-431): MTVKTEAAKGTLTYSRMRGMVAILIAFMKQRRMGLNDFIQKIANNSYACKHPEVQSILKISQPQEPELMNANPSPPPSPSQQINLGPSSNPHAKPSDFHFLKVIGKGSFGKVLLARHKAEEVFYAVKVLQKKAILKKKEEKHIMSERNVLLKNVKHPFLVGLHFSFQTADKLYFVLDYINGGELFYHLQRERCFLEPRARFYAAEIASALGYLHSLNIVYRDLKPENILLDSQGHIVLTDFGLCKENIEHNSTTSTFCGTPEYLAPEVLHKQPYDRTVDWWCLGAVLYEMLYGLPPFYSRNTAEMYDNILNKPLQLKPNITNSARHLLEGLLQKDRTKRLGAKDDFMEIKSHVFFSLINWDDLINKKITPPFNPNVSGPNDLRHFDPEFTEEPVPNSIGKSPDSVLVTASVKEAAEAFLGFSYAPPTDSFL
Protocol: as §1

CDK1/CycB1 = molecular target: T13, CDK1/CycB1 (Homo sapiens, UniProt P06493)
T13 construct: purchased Reaction Biology Europe GmbH (formerly ProQinase)
Protocol: as §1

T6 sequence (Q15349 whole entry): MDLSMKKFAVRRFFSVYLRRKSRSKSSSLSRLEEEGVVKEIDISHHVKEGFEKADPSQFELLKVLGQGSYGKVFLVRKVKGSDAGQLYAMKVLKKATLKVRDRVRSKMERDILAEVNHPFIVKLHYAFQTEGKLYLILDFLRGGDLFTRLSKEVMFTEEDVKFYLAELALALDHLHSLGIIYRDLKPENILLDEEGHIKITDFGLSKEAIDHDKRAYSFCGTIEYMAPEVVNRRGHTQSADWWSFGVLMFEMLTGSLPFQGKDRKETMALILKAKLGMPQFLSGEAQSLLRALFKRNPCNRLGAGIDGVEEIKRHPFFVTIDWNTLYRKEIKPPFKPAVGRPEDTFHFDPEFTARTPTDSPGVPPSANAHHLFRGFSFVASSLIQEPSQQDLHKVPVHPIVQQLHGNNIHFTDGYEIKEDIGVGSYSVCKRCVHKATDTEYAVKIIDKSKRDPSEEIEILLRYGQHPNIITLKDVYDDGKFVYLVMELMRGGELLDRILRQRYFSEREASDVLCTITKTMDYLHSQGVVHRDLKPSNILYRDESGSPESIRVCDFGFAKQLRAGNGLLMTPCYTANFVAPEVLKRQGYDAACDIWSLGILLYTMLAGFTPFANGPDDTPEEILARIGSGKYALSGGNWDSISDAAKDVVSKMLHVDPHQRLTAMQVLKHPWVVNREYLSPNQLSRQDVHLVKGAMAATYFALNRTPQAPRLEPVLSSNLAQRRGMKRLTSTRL
T8 sequence (Q16620 32-822): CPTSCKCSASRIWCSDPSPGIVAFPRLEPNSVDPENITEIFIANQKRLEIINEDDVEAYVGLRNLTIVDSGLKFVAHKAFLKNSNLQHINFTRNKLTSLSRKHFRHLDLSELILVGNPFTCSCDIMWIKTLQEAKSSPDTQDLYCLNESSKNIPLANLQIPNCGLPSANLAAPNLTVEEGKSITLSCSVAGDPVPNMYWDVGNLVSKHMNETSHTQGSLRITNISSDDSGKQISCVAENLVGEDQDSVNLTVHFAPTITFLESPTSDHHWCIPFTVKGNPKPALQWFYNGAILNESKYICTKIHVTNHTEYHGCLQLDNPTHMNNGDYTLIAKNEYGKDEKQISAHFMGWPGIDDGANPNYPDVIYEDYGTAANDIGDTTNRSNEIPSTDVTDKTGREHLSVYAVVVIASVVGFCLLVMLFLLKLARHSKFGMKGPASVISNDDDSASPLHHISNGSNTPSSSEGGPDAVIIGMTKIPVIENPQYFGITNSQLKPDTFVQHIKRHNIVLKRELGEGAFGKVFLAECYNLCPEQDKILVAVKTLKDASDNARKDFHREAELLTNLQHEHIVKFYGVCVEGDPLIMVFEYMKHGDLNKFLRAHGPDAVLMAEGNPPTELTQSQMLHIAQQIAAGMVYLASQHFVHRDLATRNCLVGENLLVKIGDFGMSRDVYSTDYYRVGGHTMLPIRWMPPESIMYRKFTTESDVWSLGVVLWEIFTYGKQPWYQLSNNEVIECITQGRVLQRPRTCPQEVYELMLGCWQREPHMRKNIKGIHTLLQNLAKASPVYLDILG
T10 sequence (P08922 28-2347): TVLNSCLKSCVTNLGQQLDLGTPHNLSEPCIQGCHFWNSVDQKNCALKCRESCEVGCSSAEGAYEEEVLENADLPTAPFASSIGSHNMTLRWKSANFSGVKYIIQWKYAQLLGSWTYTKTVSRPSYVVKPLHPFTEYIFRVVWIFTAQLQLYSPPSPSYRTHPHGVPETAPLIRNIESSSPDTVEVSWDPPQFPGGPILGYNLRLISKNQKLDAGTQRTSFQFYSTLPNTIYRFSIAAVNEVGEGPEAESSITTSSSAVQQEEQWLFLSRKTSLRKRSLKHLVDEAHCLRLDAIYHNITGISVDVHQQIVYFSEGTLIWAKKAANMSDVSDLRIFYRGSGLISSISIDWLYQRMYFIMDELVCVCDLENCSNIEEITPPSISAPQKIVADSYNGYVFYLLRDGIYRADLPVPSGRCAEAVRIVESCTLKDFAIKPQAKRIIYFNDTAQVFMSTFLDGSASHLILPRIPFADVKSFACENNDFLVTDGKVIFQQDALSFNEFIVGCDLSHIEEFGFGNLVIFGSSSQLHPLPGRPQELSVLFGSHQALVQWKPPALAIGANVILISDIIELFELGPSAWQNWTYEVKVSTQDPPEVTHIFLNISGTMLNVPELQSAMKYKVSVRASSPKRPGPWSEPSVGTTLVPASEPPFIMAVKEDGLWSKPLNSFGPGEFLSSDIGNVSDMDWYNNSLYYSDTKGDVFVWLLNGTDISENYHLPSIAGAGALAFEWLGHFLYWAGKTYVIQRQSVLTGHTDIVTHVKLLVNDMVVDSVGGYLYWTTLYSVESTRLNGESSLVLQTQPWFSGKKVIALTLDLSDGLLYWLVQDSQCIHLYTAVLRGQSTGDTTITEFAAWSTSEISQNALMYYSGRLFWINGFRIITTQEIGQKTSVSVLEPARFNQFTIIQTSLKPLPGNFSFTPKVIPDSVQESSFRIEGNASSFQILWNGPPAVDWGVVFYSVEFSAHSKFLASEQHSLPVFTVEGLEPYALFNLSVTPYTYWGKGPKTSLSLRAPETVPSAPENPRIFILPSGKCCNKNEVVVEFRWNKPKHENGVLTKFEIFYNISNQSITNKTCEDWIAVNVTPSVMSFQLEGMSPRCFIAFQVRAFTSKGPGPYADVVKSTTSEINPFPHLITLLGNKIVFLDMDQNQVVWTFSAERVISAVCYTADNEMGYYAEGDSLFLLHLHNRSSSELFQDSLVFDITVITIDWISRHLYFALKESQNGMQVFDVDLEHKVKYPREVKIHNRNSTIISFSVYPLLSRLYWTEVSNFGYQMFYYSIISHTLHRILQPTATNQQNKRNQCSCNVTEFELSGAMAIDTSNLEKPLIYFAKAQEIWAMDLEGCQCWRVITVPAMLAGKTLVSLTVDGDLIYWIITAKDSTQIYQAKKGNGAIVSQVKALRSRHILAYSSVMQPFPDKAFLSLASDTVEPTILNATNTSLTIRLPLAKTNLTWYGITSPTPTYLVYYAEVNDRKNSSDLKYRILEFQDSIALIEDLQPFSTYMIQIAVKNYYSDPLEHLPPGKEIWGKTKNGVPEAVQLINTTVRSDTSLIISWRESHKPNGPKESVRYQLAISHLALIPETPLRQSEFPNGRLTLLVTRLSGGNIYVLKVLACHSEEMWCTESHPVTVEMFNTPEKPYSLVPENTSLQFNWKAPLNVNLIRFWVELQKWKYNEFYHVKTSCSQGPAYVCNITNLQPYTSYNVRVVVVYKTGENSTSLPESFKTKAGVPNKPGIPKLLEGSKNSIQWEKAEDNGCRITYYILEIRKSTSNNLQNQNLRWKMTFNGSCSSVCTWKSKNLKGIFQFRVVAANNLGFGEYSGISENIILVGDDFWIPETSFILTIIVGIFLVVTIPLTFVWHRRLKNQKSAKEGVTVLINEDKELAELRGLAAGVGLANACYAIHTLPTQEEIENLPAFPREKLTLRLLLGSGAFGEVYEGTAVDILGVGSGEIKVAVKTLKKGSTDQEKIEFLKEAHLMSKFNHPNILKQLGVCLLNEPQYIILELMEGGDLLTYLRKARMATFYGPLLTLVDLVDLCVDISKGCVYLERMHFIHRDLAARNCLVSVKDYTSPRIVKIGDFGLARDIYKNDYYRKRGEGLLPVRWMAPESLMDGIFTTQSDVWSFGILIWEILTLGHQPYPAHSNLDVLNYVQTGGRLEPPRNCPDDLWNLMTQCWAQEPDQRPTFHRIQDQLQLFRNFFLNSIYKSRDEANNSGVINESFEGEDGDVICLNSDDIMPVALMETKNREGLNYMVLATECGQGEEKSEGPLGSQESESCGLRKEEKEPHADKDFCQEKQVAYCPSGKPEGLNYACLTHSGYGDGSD
T5 sequence (Q9Y6E0 whole entry): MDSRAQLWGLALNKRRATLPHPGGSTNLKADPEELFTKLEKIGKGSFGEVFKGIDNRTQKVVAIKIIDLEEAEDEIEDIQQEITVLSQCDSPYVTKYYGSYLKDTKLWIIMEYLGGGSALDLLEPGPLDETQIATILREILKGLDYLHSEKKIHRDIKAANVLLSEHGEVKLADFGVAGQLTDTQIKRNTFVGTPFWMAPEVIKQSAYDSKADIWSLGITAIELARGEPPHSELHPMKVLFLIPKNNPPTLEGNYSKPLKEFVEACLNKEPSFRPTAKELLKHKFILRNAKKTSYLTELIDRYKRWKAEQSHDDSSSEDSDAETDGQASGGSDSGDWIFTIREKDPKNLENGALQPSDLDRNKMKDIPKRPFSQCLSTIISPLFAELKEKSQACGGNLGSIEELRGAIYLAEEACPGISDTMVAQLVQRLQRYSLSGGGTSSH

COc1ccnc2[nH]cc(-c3cc(N)nc(N)c3)c12 [meriolin 16]
residual kinase activity (SIK3; 0.03 µM): 106 % of control
residual kinase activity (SIK3; 0.3 µM): 88 % of control
residual kinase activity (MAPKAPK5; 0.3 µM): 85 % of control
residual kinase activity (CDK4/CycD1; 0.03 µM): 86 % of control
residual kinase activity (CDK4/CycD1; 0.3 µM): 36 % of control
residual kinase activity (PKCα; 0.03 µM): 95 % of control
residual kinase activity (PKCα; 0.3 µM): 80 % of control
residual kinase activity (MST3; 0.03 µM): 101 % of control
residual kinase activity (MST3; 0.3 µM): 91 % of control
residual kinase activity (RPS6KA2; 0.03 µM): 87 % of control
residual kinase activity (RPS6KA2; 0.3 µM): 34 % of control
residual kinase activity (TXK; 0.03 µM): 100 % of control
residual kinase activity (TXK; 0.3 µM): 90 % of control
residual kinase activity (TRKB; 0.03 µM): 68 % of control
residual kinase activity (TRKB; 0.3 µM): 29 % of control
residual kinase activity (PRKX; 0.03 µM): 54 % of control
residual kinase activity (PRKX; 0.3 µM): 3 % of control
residual kinase activity (ROS; 0.03 µM): 92 % of control
residual kinase activity (ROS; 0.3 µM): 81 % of control
residual kinase activity (MARK4; 0.03 µM): 99 % of control
residual kinase activity (MARK4; 0.3 µM): 91 % of control
residual kinase activity (SGK1; 0.03 µM): 92 % of control
residual kinase activity (SGK1; 0.3 µM): 76 % of control
residual kinase activity (CDK1/CycB1; 0.03 µM): 29 % of control
residual kinase activity (CDK1/CycB1; 0.3 µM): 5 % of control

c1ccc(CNc2cc(-c3c[nH]c4ncccc34)ccn2)cc1 [meriolin 36]
residual kinase activity (SIK3; 0.3 µM): 72 % of control
residual kinase activity (SIK3; 3 µM): 32 % of control
residual kinase activity (MAPKAPK5; 3 µM): 69 % of control
residual kinase activity (CDK4/CycD1; 0.3 µM): 24 % of control
residual kinase activity (CDK4/CycD1; 3 µM): 4 % of control
residual kinase activity (PKCα; 0.3 µM): 49 % of control
residual kinase activity (PKCα; 3 µM): 11 % of control
residual kinase activity (MST3; 0.3 µM): 71 % of control
residual kinase activity (MST3; 3 µM): 32 % of control
residual kinase activity (RPS6KA2; 0.3 µM): 6 % of control
residual kinase activity (RPS6KA2; 3 µM): 0 % of control
residual kinase activity (TXK; 0.3 µM): 84 % of control
residual kinase activity (TXK; 3 µM): 35 % of control
residual kinase activity (TRKB; 0.3 µM): 10 % of control
residual kinase activity (TRKB; 3 µM): 2 % of control
residual kinase activity (PRKX; 0.3 µM): 15 % of control
residual kinase activity (PRKX; 3 µM): -1 % of control
residual kinase activity (ROS; 0.3 µM): 26 % of control
residual kinase activity (ROS; 3 µM): 5 % of control
residual kinase activity (MARK4; 0.3 µM): 90 % of control
residual kinase activity (MARK4; 3 µM): 54 % of control
residual kinase activity (SGK1; 0.3 µM): 30 % of control
residual kinase activity (SGK1; 3 µM): 10 % of control
residual kinase activity (CDK1/CycB1; 0.3 µM): 4 % of control
residual kinase activity (CDK1/CycB1; 3 µM): 1 % of control
